Experimental data: ChEMBL document CHEMBL1129018, “Asymmetric synthesis of cis-()-(2R4S)-4-(phosphonomethyl)-2-piperidinecarboxylic acid, a potent NMDA receptor antagonist” (Bioorg Med Chem Lett, 1996)
pIC50: −log10 of the molar value.

Assay: Compound was tested for binding activity against N-methyl-D-aspartic acid(NMDA) receptor in rat brain crude synaptic membranes
Assay type: cell membranes

Row | SMILES | pIC50
1 | O=C(O)[C@@H]1C[C@H](CP(=O)(O)O)CCN1 (stereo in doubt; form 1) [SELFOTEL] | 7.16
2 | O=C(O)[C@@H]1C[C@H](CP(=O)(O)O)CCN1 (stereo in doubt; form 2) [SELFOTEL] | 7.54
3 | O=C(O)[C@@H]1C[C@H](CP(=O)(O)O)CCN1 (stereo in doubt) [SELFOTEL] | 5.00
